Measured values as given in ChEMBL document CHEMBL3739409, “Bioactive ent-Pimarane and ent-Abietane Diterpenoids from the Whole Plants of Chloranthus henryi” (J Nat Prod, 2015).
In brackets after ≈: the same amount, converted by molar mass.

How the values were obtained:
Candida albicans [1] = assay: Antifungal activity against Candida albicans SC5314 assessed as inhibition of yeast to hyphae conversion after 4 hrs by microscopic analysis; assay type: functional, organism-based; conditions: SC5314, 4 h
Candida albicans [2] = assay: Antifungal activity against Candida albicans SC5314 by broth microdilution method; assay type: functional

Work on `C=C[C@]1(C)C=C2[C@@H](CC1)[C@]1(C)CC[C@@H](O)C(C)(C)[C@H]1C[C@@H]2O` yielded an IC50 (Candida albicans [1]) of 399 µM.
For `CC(C)c1ccc2c(c1)C(=O)CC1C(C)(C)[C@@H](O)CC[C@]21C` (stereo partly drawn), the MIC50 (Candida albicans [2]) was 427 µM (≈ 128 µg/mL) and the IC50 (Candida albicans [1]) was 97.3 µM.
In the case of `CC(C)c1ccc2c(c1)[C@H](O)CC1C(C)(C)[C@@H](O)CC[C@]21C` (stereo partly drawn), the IC50 (Candida albicans [1]) is reported as 739 µM.
`C=CCc1ccc(O)c(-c2cc(CC=C)ccc2O)c1` [MAGNOLOL] was tested, and the IC50 (Candida albicans [1]) was 7.5 µM.
`OC(Cn1cncn1)(Cn1cncn1)c1ccc(F)cc1F` [FLUCONAZOLE] gave an MIC50 (Candida albicans [2]) of 1.6 µM (≈ 0.49 µg/mL).
Compound `CO[C@@]1(C(C)C)C=C2C(=O)C[C@@H]3C(C)(C)[C@H](O)CC[C@@]3(C)[C@@H]2C[C@H]1O` has an MIC50 (Candida albicans [2]) of 731 µM (≈ 256 µg/mL) and an IC50 (Candida albicans [1]) of 334 µM.
